Data: patent US20250136619A1, “HETEROBIFUNCTIONAL COMPOUNDS AND THEIR USE IN TREATING DISEASE” (HALDA THERAPEUTICS OPCO, INC., priority 2021, published 2025)
Like-named read-outs stand apart in the source and are kept apart here.

What was measured:
[1] = tested on: HEK293 cells; assay: Cellular growth inhibition assay (CellTiter-Glo), HEK293 cells; format: cell-based; conditions: HEK293 cells, three days of compound treatment, CellTiter-Glo 2.0, read-out: CTG HEK293 GI50
How it was run: (§1)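 HeLa or HEK293 cells in DMEM with 10% FBS exposed to titrated compound for three days at 37 °C, 5% CO2, 24 h after seeding. Viability by CellTiter-Glo 2.0 luminescence, normalized to DMSO Day 0 and Day 3 readings; four-parameter fit gives GI50.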

[2] = tested on: HeLa cells; assay: Cellular growth inhibition assay (CellTiter-Glo), HeLa cells; format: cell-based; conditions: HeLa cells, three days of compound treatment, CellTiter-Glo 2.0, read-out: CTG HELA GI50
How it was run: as §1

[3] = biological target: BTK (Homo sapiens (Human), UniProt Q06187); assay: KdELECT assay for binding affinity to BTK
Method: (§2) Compounds were tested using a KdELECT assay. Kinase-tagged T7 phage strains were prepared in an E. coli host derived from the BL21 strain. E. coli were grown to log-phase and infected with T7 phage and incubated with shaking at 32° C. until lysis. The lysates were centrifuged and filtered to remove cell debris. The remaining kinases were produced in HEK-293 cells and subsequently tagged with DNA for qPCR detection. Streptavidin-coated magnetic beads were treated with biotinylated small molecule ligands for 30 minutes at room temperature to generate affinity resins for kinase assays. The liganded beads were blocked with excess biotin and washed with blocking buffer (SeaBlock (Pierce), 1% BSA, 0.05% Tween 20, 1 mM DTT) to remove unbound ligand and to reduce non-specific binding. Binding reactions were assembled by combining kinases, liganded affinity beads, and test compounds in 1× binding buffer (20% SeaBlock, 0.17×PBS, 0.05% Tween 20, 6 mM DTT). Test compounds were prepared as 111X stocks in 100% DMSO. Kd values were determined using an 11-point 3-fold compound dilution series with three DMSO control points. All compounds for Kd measurements are distributed by acoustic transfer (non-contact dispensing) in 100% DMSO. The compounds were then diluted directly into the assays such that the final concentration of DMSO was 0.9%. All reactions performed in polypropylene 384-well plate. Each was a final volume of 0.02 mL. The assay plates were incubated at room temperature with shaking for 1 hour and the affinity beads were washed with wash buffer (1×PBS, 0.05% Tween 20). The beads were then re-suspended in elution buffer (1×PBS, 0.05% Tween 20, 0.5 μM nonbiotinylated affinity ligand) and incubated at room temperature with shaking for 30 minutes. The kinase concentration in the eluates was measured by qPCR.

[4] = biological target: CDK9 (Homo sapiens (Human), UniProt P50750); assay: KdELECT assay for binding affinity to CDK9
Method: as §2, with “KdELECT.” for “KdELECT assay.”, “1×binding” for “1× binding”

Sequence of BTK (Q06187 whole entry): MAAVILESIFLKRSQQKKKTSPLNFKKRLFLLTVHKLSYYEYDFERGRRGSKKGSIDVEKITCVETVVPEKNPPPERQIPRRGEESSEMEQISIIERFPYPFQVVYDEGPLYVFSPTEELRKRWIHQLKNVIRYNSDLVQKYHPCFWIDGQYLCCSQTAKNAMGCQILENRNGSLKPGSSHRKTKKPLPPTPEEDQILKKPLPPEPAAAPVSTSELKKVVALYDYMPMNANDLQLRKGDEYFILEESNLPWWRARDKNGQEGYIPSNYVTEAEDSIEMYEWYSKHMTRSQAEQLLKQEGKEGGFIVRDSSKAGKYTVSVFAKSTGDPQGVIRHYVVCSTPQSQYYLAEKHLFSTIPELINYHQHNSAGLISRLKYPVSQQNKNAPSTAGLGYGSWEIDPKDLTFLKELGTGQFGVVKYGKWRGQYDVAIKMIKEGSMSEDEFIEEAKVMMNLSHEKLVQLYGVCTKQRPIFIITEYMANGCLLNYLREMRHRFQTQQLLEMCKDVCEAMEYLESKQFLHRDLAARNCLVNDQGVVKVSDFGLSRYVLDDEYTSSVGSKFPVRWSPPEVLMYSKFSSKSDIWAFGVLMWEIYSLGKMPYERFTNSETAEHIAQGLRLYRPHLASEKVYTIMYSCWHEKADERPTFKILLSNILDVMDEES
Sequence of CDK9 (P50750 whole entry): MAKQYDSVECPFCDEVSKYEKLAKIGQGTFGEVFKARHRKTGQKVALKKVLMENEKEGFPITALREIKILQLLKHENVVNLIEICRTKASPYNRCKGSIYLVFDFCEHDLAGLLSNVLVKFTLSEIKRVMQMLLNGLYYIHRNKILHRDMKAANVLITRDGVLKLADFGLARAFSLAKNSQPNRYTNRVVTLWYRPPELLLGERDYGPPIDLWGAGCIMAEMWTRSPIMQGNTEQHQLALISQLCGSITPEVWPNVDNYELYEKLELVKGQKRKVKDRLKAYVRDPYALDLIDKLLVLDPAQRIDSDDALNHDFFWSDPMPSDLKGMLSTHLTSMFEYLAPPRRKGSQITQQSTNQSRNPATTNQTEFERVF

GI50 [2] [µM] | Kd [3] [µM] | Kd [4] [µM] | GI50 ([2]; Homo sapiens, 72 h) [µM] | SMILES | GI50 [1] [µM] | GI50 ([1]; Homo sapiens, 72 h) [µM]
< 0.5 | < 0.05 | < 0.05 | – | CCc1cnn2c(NCc3ccc(OCCCN4CCN(CCCN(C)C/C=C/C(=O)N5CCC[C@@H](n6nc(-c7ccc(Oc8ccccc8)cc7)c7c(N)ncnc76)C5)CC4)nc3)cc(N3CCCC[C@H]3CCO)nc12 [Compound I-69] | < 0.5 | –
– | 0.05 to 0.5 | < 0.05 | 0.5 to 1.5 | CCc1cnn2c(NCc3ccc(OCCOCCOCCOC4CCN(C/C=C/C(=O)N(C)CCOc5c(N)ncnc5-c5cc(F)cc(NC(=O)c6ccc(C7CC7)cc6F)c5C)CC4)nc3)cc(N3CCCC[C@H]3CCO)nc12 [Compound I-82, (S,E)-N-(3-(6-amino-5-(2-(4-(4-(2-(2-(2-((5-(((3-ethyl-5-(2-(2-hydroxyethyl)piperidin-1-yl)pyrazolo[1,5-a]pyrimidin-7-yl)amino)methyl)pyridin-2-yl)oxy)ethoxy)ethoxy)ethoxy)piperidin-1-yl)-N-methylbut-2-enamido)ethoxy)pyrimidin-4-yl)-5-fluoro-2-methylphenyl)-4-cyclopropyl-2-fluorobenzamide] | – | 1.5 to 5
– | < 0.05 | 0.5 to 2.5 | 1.5 to 5 | CN(C/C=C/C(=O)N1CCC[C@@H](n2nc(-c3ccc(Oc4ccccc4)cc3)c3c(N)ncnc32)C1)CCOCCOCCOCCOCCNS(=O)(=O)c1ccc(Nc2ncc(Br)c(Nc3cccc(F)c3C(N)=O)n2)cc1 [Compound I-64, 2-[[2-[4-[2-[2-[2-[2-[2-[[(E)-4-[(3R)-3-[4-amino-3-(4-phenoxyphenyl)pyrazolo[3,4-d]pyrimidin-1-yl]-1-piperidyl]-4-oxo-but-2-enyl]-methyl-amino]ethoxy]ethoxy]ethoxy]ethoxy]ethylsulfamoyl]anilino]-5-bromo-pyrimidin-4-yl]amino]-6-fluoro-benzamide] | – | > 5
– | < 0.05 | 0.05 to 0.5 | < 0.5 | CCc1cnn2c(NCc3ccc(OCCOCCOCCOC4CCN(C/C=C/C(=O)N5CCC[C@@H](n6nc(-c7ccc(Oc8ccccc8)cc7)c7c(N)ncnc76)C5)CC4)nc3)cc(N3CCCC[C@H]3CCO)nc12 [Compound I-70, (E)-1-((R)-3-(4-amino-3-(4-phenoxyphenyl)-1H-pyrazolo[3,4-d]pyrimidin-1-yl)piperidin-1-yl)-4-(4-(2-(2-(2-((5-(((3-ethyl-5-((S)-2-(2-hydroxyethyl)piperidin-1-yl)pyrazolo[1,5-a]pyrimidin-7-yl)amino)methyl)pyridin-2-yl)oxy)ethoxy)ethoxy)ethoxy)piperidin-1-yl) but-2-en-1-one] | – | 0.5 to 1.5
– | < 0.05 | < 0.05 | – | CCc1cnn2c(NCc3ccc(CCOCCOCCN(C)C/C=C/C(=O)N4CCC[C@@H](n5nc(-c6ccc(Oc7ccccc7)cc6)c6c(N)ncnc65)C4)nc3)cc(N3CCCC[C@H]3CCO)nc12 [Compound I-67, (E)-1-((R)-3-(4-amino-3-(4-phenoxyphenyl)-1H-pyrazolo[3,4-d]pyrimidin-1-yl)piperidin-1-yl)-4-((2-(2-(2-(5-(((3-ethyl-5-((S)-2-(2-hydroxyethyl)piperidin-1-yl)pyrazolo[1,5-a]pyrimidin-7-yl)amino)methyl)pyridin-2-yl)ethoxy)ethoxy)ethyl)(methyl)amino)but-2-en-1-one] | – | –
– | < 0.05 | 0.05 to 0.5 | 1.5 to 5 | Cc1c(NC(=O)c2ccc(C3CC3)cc2F)cc(F)cc1-c1ncnc(N)c1OCCN(C)C(=O)/C=C/CN(C)CCCN1CCN(CCCNS(=O)(=O)c2ccc(Nc3ncc(Br)c(Nc4cccc(F)c4C(N)=O)n3)cc2)CC1 [Compound I-79, 2-[[2-[4-[3-[4-[3-[[(E)-4-[2-[4-amino-6-[3-[(4-cyclopropyl-2-fluoro-benzoyl)amino]-5-fluoro-2-methyl-phenyl]pyrimidin-5-yl]oxyethyl-methyl-amino]-4-oxo-but-2-enyl]-methyl-amino]propyl]piperazin-1-yl]propylsulfamoyl]anilino]-5-bromo-pyrimidin-4-yl]amino]-6-fluoro-benzamide] | – | > 5
– | 0.5 to 2.5 | 0.05 to 0.5 | – | CCc1cnn2c(NCc3ccc(OCCOCCOCCOCCOCCN(C)C/C=C/C(=O)N(C)CCOc4c(N)ncnc4-c4cc(F)cc(NC(=O)c5ccc(C6CC6)cc5F)c4C)nc3)cc(N3CCCC[C@H]3CCO)nc12 [Compound I-77] | – | –
< 0.5 | < 0.05 | < 0.05 | – | CCc1cnn2c(NCc3ccc(OCCCN4CCN(CCCN(C)C/C=C/C(=O)N(C)CCOc5c(N)ncnc5-c5cc(F)cc(NC(=O)c6ccc(C7CC7)cc6F)c5C)CC4)nc3)cc(N3CCCC[C@H]3CCO)nc12 [Compound I-81, N-[3-[6-amino-5-[2-[[(E)-4-[3-[4-[3-[5-[[[3-ethyl-5-[(2S)-2-(2-hydroxyethyl)-1-piperidyl]pyrazolo[1,5-a]pyrimidin-7-yl]aminomethyl]-2-pyridyl]oxy]propyl]piperazin-1-yl]propyl-methyl-amino]but-2-enoyl]-methyl-amino]ethoxy]pyrimidin-4-yl]-5-fluoro-2-methyl-phenyl]-4-cyclopropyl-2-fluoro-benzamide] | < 0.5 | –
– | < 0.05 | 0.5 to 2.5 | – | NC(=O)c1c(F)cccc1Nc1nc(Nc2ccc(S(=O)(=O)NCCOCCOCCOC3CCN(C/C=C/C(=O)N4CCC[C@@H](n5nc(-c6ccc(Oc7ccccc7)cc6)c6c(N)ncnc65)C4)CC3)cc2)ncc1Br [Compound I-68, 2-[[2-[4-[2-[2-[2-[[1-[(E)-4-[(3R)-3-[4-amino-3-(4-phenoxyphenyl)pyrazolo[3,4-d]pyrimidin-1-yl]-1-piperidyl]-4-oxo-but-2-enyl]-4-piperidyl]oxy]ethoxy]ethoxy]ethylsulfamoyl]anilino]-5-bromo-pyrimidin-4-yl]amino]-6-fluoro-benzamide] | – | –
– | < 0.05 | 0.05 to 0.5 | < 0.5 | CCc1cnn2c(NCc3ccc(OCCOCCOCCOCCOCCOC/C=C/C(=O)N4CCC[C@@H](n5nc(-c6ccc(Oc7ccccc7)cc6)c6c(N)ncnc65)C4)nc3)cc(N3CCCC[C@H]3CCO)nc12 [Compound I-42] | – | 0.5 to 1.5
